The values that follow come from patent US20090312433A1, “TREATMENT OF VR1-ANTAGONIST-INDUCED INCREASE IN BODY TEMPERATURE WITH AN ANTIPYRETIC AGENT” (Amgen Inc., priority 2005, published 2009).

One series concerns rats. The experiment in a line: Body temperature in rats after TRPV1 antagonist followed by acetaminophen. The series is classed as in vivo. As to the method: In this study rats were first treated with vehicle (Oraplus/5% Tween 80) or a TRPV1 antagonist (Compound A; 3 mg/kg, p.o.). Following a 120 min period, separate groups of rats were then administered vehicle (Oraplus/5% Tween 80) or acetaminophen (300 mg/kg, p.o.). Body temperature was then measured for an additional 120 min.

For series [1], the system named is TRPV1. The conditions noted are these: different species; cited from earlier work.
Series [2] has as its system TRPV1. The following applies: cited from earlier work.

Structures are written as SMILES. Entries after “also recorded” stand apart in the source; their conditions may differ.

In the case of `CC(=O)Nc1nc2c(Oc3cc(-c4ccc(C(F)(F)F)cc4NC(=O)OC(C)(C)C)ncn3)cccc2s1` [Compound A, {2-[6-(2-acetylamino-benzothiazol-4-yloxy)-pyrimidin-4-yl]-5-trifluoromethyl-phenyl}-carbamic acid tert-butyl ester], the “body temperature following treatment with TRPV1 antagonist” value in the series on rats (3 mg/kg, p.o., 120 min period after dosing) is reported as “significant increase in body temperature”. For the same molecule, the “body temperature compared to the control group (Veh+Veh)” value with rats (Compound A 3 mg/kg p.o. followed after 120 min by vehicle (Compound A+Veh group), measured for an additional 120 min) was “remained elevated”.

`C=C(C)[C@]12C[C@@H](C)[C@@]34O[C@](Cc5ccccc5)(O[C@@H]1[C@@H]3C=C(COC(=O)Cc1ccc(O)c(OC)c1)C[C@]1(O)C(=O)C(C)=C[C@@H]41)O2` [RTX, resiniferatoxin]: the “hypothermia induced by TRPV1 agonists” value in the series with TRPV1 [1] was “induce hypothermia”.

Turning to `CC(=O)Nc1ccc(O)cc1` [acetaminophen], the “body temperature after TRPV1 antagonist followed by acetaminophen” value in the series with rats (Compound A 3 mg/kg p.o., then after 120 min acetaminophen 300 mg/kg p.o. (Compound A+Acet group), measured for an additional 120 min) was “reversed; also recorded: decreased to levels observed in the control group”. In addition, in the series with rats (vehicle, then after 120 min acetaminophen 300 mg/kg p.o. (Veh+Acet group)), the “body temperature, acetaminophen alone” value is “decreased”.

As for `COc1cc(CNC(=O)CCCC/C=C/C(C)C)ccc1O` [capsaicin], the “hypothermia in mice lacking TRPV1” value in the series on TRPV1 [2] is reported as “did not induce hypothermia”. Moreover, in the series on TRPV1 [1], the “hypothermia induced by TRPV1 agonists” value is “induce hypothermia”.
